≈ marks a conversion by molar mass, not a printed value.
Columns and labels:
Candida albicans = assay: Antifungal activity against Candida albicans by broth microdilution test; type: functional, organism-based
Cryptococcus neoformans = assay: Antifungal activity against Cryptococcus neoformans by broth microdilution test; type: functional, organism-based
Fusarium oxysporum = assay: Antifungal activity against Fusarium oxysporum by broth microdilution test; type: functional, organism-based
Benjaminiella poitrasii [1] = assay: Inhibition of chitin synthase activity in Benjaminiella poitrasii at 4 ug/mL
Benjaminiella poitrasii [2] = assay: Antifungal activity against Benjaminiella poitrasii assessed as inhibition of germ tube formation at 4 ug/mL after 6 hrs; type: functional
Benjaminiella poitrasii [3] = assay: Antifungal activity against Benjaminiella poitrasii at 4 ug/mL by standard broth microdilution technique; type: functional

| SMILES | IC50 (Candida albicans) | MIC90 (Candida albicans) | IC50 (Cryptococcus neoformans) | MIC90 (Cryptococcus neoformans) | IC50 (Fusarium oxysporum) | MIC90 (Fusarium oxysporum) | inhibition (Benjaminiella poitrasii [1]) | inhibition at 4 µg/mL (Benjaminiella poitrasii [2]) | inhibition at 4 µg/mL (Benjaminiella poitrasii [3]) |
| --- | --- | --- | --- | --- | --- | --- | --- | --- | --- |
| CC1(C)O[C@@H]2[C@H](O1)[C@@H](Cn1cc(COC(=O)Cc3ccc(Cl)cc3Cl)nn1)O[C@H]2n1ccc(=O)[nH]c1=O | 32 µg/mL (≈ 57.9 µM) | > 128 µg/mL | 32 µg/mL (≈ 57.9 µM) | 64 µg/mL (≈ 116 µM) | > 128 µg/mL | > 128 µg/mL | 67% | 57.1% | 38.6% |
| CC1(C)O[C@@H]2[C@H](O1)[C@@H](Cn1cc(COc3ccc(F)cc3)nn1)O[C@H]2n1ccc(=O)[nH]c1=O | 9 µg/mL (≈ 19.6 µM) | > 128 µg/mL | 64 µg/mL (≈ 139 µM) | 128 µg/mL (≈ 279 µM) | 128 µg/mL (≈ 279 µM) | > 128 µg/mL | 84.1% | 64.7% | 9.43% |
| CC1(C)O[C@@H]2[C@H](O1)[C@@H](Cn1cc(COc3ccc(Cl)cc3)nn1)O[C@H]2n1ccc(=O)[nH]c1=O | 18 µg/mL (≈ 37.8 µM) | 32 µg/mL (≈ 67.2 µM) | 30 µg/mL (≈ 63 µM) | 57 µg/mL (≈ 120 µM) | 16 µg/mL (≈ 33.6 µM) | 32 µg/mL (≈ 67.2 µM) | 95.1% | 58.1% | 34.6% |
| COc1ccc(OCc2cn(C[C@H]3O[C@@H](n4ccc(=O)[nH]c4=O)[C@@H]4OC(C)(C)O[C@@H]43)nn2)cc1 | 16 µg/mL (≈ 33.9 µM) | 24 µg/mL (≈ 50.9 µM) | 35 µg/mL (≈ 74.2 µM) | 49 µg/mL (≈ 104 µM) | 70 µg/mL (≈ 148 µM) | 124 µg/mL (≈ 263 µM) | 68.5% | 71.4% | 29.3% |
| C[C@@H]1[C@H](O)[C@@H](C)/C=C/C=C/C=C/C=C/C=C/C=C/C=C/[C@H](O[C@@H]2O[C@H](C)[C@@H](O)[C@H](N)[C@@H]2O)C[C@@H]2O[C@](O)(C[C@@H](O)C[C@@H](O)[C@H](O)CC[C@@H](O)C[C@@H](O)CC(=O)O[C@H]1C)C[C@H](O)[C@H]2C(=O)O [AMPHOTERICIN B] | – | 2 µg/mL (≈ 2.16 µM) | – | 16 µg/mL (≈ 17.3 µM) | – | 16 µg/mL (≈ 17.3 µM) | – | – | – |
| CC1(C)O[C@@H]2[C@H](O1)[C@@H](Cn1cc(COc3ccccc3)nn1)O[C@H]2n1ccc(=O)[nH]c1=O | 68 µg/mL (≈ 154 µM) | > 128 µg/mL | 4 µg/mL (≈ 9.06 µM) | 8 µg/mL (≈ 18.1 µM) | 128 µg/mL (≈ 290 µM) | > 128 µg/mL | 77.2% | 45.1% | 21.5% |
| CC1(C)O[C@@H]2[C@H](O1)[C@@H](Cn1cc(COc3ccc([N+](=O)[O-])cc3)nn1)O[C@H]2n1ccc(=O)[nH]c1=O | > 128 µg/mL | > 128 µg/mL | 14 µg/mL (≈ 28.8 µM) | 32 µg/mL (≈ 65.8 µM) | 32 µg/mL (≈ 65.8 µM) | 64 µg/mL (≈ 132 µM) | 77.8% | 78.2% | 17.4% |
| C[C@@H]([C@H](N)C(=O)N[C@H](C(=O)O)[C@H]1O[C@@H](n2ccc(=O)[nH]c2=O)[C@H](O)[C@@H]1O)[C@H](O)c1ccc(O)cn1 [NIKKOMYCIN] | 32 µg/mL (≈ 64.6 µM) | 64 µg/mL (≈ 129 µM) | 16 µg/mL (≈ 32.3 µM) | 30 µg/mL (≈ 60.6 µM) | 6 µg/mL (≈ 12.1 µM) | 8 µg/mL (≈ 16.1 µM) | 96.6% | > 95% | 45.5% |
| Cc1cccc(OCc2cn(C[C@H]3O[C@@H](n4ccc(=O)[nH]c4=O)[C@@H]4OC(C)(C)O[C@@H]43)nn2)c1 | 34 µg/mL (≈ 74.6 µM) | 128 µg/mL (≈ 281 µM) | 8 µg/mL (≈ 17.6 µM) | 64 µg/mL (≈ 141 µM) | 32 µg/mL (≈ 70.3 µM) | 64 µg/mL (≈ 141 µM) | 82.1% | 69.2% | 34.4% |
| OC(Cn1cncn1)(Cn1cncn1)c1ccc(F)cc1F [FLUCONAZOLE] | 14 µg/mL (≈ 45.7 µM) | 32 µg/mL (≈ 104 µM) | – | 32 µg/mL (≈ 104 µM) | – | 8 µg/mL (≈ 26.1 µM) | – | – | – |
| CC1(C)O[C@@H]2[C@H](O1)[C@@H](Cn1cc(COC(=O)C(=O)c3ccccc3)nn1)O[C@H]2n1ccc(=O)[nH]c1=O | > 128 µg/mL | > 128 µg/mL | 16 µg/mL (≈ 32.2 µM) | > 128 µg/mL | 55 µg/mL (≈ 111 µM) | 106 µg/mL (≈ 213 µM) | 80% | 72% | 51.5% |
| CC1(C)O[C@@H]2[C@H](O1)[C@@H](Cn1cc(COC(=O)Cc3ccccc3)nn1)O[C@H]2n1ccc(=O)[nH]c1=O | 18 µg/mL (≈ 37.2 µM) | 32 µg/mL (≈ 66.2 µM) | 18 µg/mL (≈ 37.2 µM) | 31 µg/mL (≈ 64.1 µM) | 16 µg/mL (≈ 33.1 µM) | 32 µg/mL (≈ 66.2 µM) | 71% | 75% | 31.9% |
| CC1(C)O[C@@H]2[C@H](O1)[C@@H](Cn1cc(COC(=O)Cc3ccc(O)cc3)nn1)O[C@H]2n1ccc(=O)[nH]c1=O | > 128 µg/mL | > 128 µg/mL | 128 µg/mL (≈ 256 µM) | > 128 µg/mL | 35 µg/mL (≈ 70.1 µM) | 57 µg/mL (≈ 114 µM) | 73.4% | 61.5% | 28.2% |
| CC1(C)O[C@@H]2[C@H](O1)[C@@H](Cn1cc(COc3cccc4ccccc34)nn1)O[C@H]2n1ccc(=O)[nH]c1=O | 34 µg/mL (≈ 69.2 µM) | > 128 µg/mL | 32 µg/mL (≈ 65.1 µM) | 64 µg/mL (≈ 130 µM) | 32 µg/mL (≈ 65.1 µM) | 64 µg/mL (≈ 130 µM) | 76.9% | 72.7% | 32.4% |
| CC1(C)O[C@@H]2[C@H](O1)[C@@H](Cn1cc(COC(=O)CCl)nn1)O[C@H]2n1ccc(=O)[nH]c1=O | 32 µg/mL (≈ 72.4 µM) | 66 µg/mL (≈ 149 µM) | 125 µg/mL (≈ 283 µM) | > 128 µg/mL | 8 µg/mL (≈ 18.1 µM) | 16 µg/mL (≈ 36.2 µM) | 75.7% | 60% | 30.2% |
| CC1(C)O[C@@H]2[C@H](O1)[C@@H](Cn1cc(COC(=O)COc3ccccc3)nn1)O[C@H]2n1ccc(=O)[nH]c1=O | 64 µg/mL (≈ 128 µM) | > 128 µg/mL | 128 µg/mL (≈ 256 µM) | > 128 µg/mL | 16 µg/mL (≈ 32 µM) | 33 µg/mL (≈ 66.1 µM) | 74% | 52.5% | 56.2% |
| Cc1ccccc1CC(=O)OCc1cn(C[C@H]2O[C@@H](n3ccc(=O)[nH]c3=O)[C@@H]3OC(C)(C)O[C@@H]32)nn1 | 18 µg/mL (≈ 36.2 µM) | 32 µg/mL (≈ 64.3 µM) | 32 µg/mL (≈ 64.3 µM) | 64 µg/mL (≈ 129 µM) | 64 µg/mL (≈ 129 µM) | > 128 µg/mL | 36.4% | 67.2% | 27.3% |

Reference: ChEMBL document CHEMBL1153944, “Exploration of click reaction for the synthesis of modified nucleosides as chitin synthase inhibitors” (Bioorg Med Chem, 2009)
